One may read the Ki as a measure of affinity in units of concentration, obtained from inhibition or displacement.

Our source for the Ki values is US20050209278A1, “Piperidinyl- and piperazinyl-sulfonylmethyl hydroxamic acids and their use as protease inhibitors” (priority 2002, published 2005).

Common to all, as to assay type: biochemical
The target in one experiment is T1, MMP-14 (Homo sapiens, UniProt P50281).
T1 construct: The catalytic domain enzyme was expressed in E. coli inclusion bodies, solubilized in urea; made in house
The experiment is described as follows: MMP-14 inhibition (in vitro Ki). To be noted: Table 8; read-out: MMP-14 Ki.

A further experiment concerns the target T2, MMP-2 (Homo sapiens, UniProt P08253).
T2 construct: made in house; host or cells: MMP-2-transfected p2AHT2 cells
T2 sequence (P08253 110-660): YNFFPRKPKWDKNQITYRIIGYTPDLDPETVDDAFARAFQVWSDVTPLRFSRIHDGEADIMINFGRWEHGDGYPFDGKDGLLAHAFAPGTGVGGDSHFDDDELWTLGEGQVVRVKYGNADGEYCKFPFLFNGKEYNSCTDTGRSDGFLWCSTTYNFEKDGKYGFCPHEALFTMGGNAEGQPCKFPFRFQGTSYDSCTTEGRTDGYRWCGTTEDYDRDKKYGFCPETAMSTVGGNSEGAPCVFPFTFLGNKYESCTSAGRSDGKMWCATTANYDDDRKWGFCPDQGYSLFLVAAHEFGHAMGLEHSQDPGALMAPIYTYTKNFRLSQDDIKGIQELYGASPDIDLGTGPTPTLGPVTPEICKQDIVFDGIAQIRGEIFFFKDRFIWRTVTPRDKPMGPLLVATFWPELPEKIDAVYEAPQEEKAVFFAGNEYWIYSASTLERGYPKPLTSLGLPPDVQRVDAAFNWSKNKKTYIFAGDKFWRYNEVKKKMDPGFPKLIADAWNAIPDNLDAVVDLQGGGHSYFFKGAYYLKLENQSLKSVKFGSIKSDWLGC
The experiment in a line: MMP-2 inhibition (in vitro Ki). The conditions noted are these: Table 8; read-out: MMP-2 Ki.

In the next experiment the target is T3, MMP-9 (Homo sapiens, UniProt P14780).
T3 construct: made in house; host or cells: MMP-9-transfected HT1080 cells (spent media)
The experiment in a line: MMP-9 inhibition (in vitro Ki). The conditions noted are these: Table 8; read-out: MMP-9 Ki.

A further experiment addresses T4, MMP-1 (Homo sapiens, UniProt P03956).
T4 construct: made in house; host or cells: MMP-1-transfected HT-1080 cells (spent media)
T4 sequence (P03956 100-469): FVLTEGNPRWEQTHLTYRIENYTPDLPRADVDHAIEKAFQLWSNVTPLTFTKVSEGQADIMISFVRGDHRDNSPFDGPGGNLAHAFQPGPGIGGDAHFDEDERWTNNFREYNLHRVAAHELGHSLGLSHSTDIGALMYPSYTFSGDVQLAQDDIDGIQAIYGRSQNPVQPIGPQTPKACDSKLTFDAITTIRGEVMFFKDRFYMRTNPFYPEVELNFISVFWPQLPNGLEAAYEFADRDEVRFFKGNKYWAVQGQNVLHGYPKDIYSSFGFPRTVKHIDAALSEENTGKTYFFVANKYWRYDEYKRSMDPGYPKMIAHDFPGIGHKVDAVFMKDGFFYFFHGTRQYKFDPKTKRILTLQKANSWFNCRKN
The experiment in a line: MMP-1 inhibition (in vitro Ki). The conditions noted are these: Table 8; read-out: MMP-1 Ki.

Another experiment deals with T5, MMP-13 (Homo sapiens, UniProt P45452).
T5 construct: made in house; host or cells: baculovirus / insect cells
The experiment is described as follows: MMP-13 inhibition (in vitro Ki). To be noted: Table 8; read-out: MMP-13 Ki.

Molecules are shown by their SMILES.

T3 sequence (P14780 107-707 limits assumed): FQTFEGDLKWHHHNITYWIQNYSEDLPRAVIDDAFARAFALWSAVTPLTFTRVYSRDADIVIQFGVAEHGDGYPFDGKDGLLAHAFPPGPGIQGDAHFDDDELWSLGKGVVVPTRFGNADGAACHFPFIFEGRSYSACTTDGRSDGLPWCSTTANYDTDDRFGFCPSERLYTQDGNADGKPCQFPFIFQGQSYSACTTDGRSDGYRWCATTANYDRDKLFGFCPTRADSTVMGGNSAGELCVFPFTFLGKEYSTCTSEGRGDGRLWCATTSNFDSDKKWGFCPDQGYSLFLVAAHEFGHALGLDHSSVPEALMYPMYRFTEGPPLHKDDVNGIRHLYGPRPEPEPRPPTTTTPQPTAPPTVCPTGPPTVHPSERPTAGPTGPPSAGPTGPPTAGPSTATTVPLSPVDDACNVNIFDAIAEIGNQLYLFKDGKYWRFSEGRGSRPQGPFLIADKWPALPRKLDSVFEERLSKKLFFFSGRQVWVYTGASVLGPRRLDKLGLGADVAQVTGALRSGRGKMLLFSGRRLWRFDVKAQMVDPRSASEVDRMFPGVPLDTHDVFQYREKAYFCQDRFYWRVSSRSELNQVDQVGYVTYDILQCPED

Regarding `O=C(NO)C1(S(=O)(=O)N2CCC(CCCOCCCC(F)(F)F)CC2)CCOCC1` [Example A36J], the inhibition constant (Ki) at MMP-14 was 6550 nM; at MMP-2, 7.8 nM; on MMP-9, 10.3 nM; on MMP-1, greater than 10000 nM; at MMP-13, 4.38 nM.

For `O=C(NO)C1(S(=O)(=O)N2CCC(CCCCCOCCC(F)(F)F)CC2)CCOCC1` [Example A37, 4-{4-[5-(3,3,3-Trifluoro-propoxy)-pentyl]-piperidine-1-sulfonyl}-tetrahydro-pyran-4-carboxylic Acid Hydroxyamide], the Ki worked out at 690 nM at MMP-14; 0.97 nM at MMP-2; 0.3 nM on MMP-9; 6710 nM on MMP-1; 0.3 nM at MMP-13.

Take `CCOCCCCCC1CCN(S(=O)(=O)C2(C(=O)NO)CCOCC2)CC1` [Example A38, 4-[4-(5-ethoxy-pentyl)-piperidine-1-sulfonyl]-tetrahydro-pyran-4-carboxylic Acid Hydroxyamide]: the Ki at MMP-14 turned out to be 1190 nM; on MMP-2, 0.72 nM; on MMP-9 it was 2.25 nM; at MMP-1, 4580 nM; on MMP-13, 0.52 nM.

For the molecule `CCCOCCCCC1CCN(S(=O)(=O)C2(C(=O)NO)CCOCC2)CC1` [Example A39, 4-[4-(4-propoxy-butyl)-piperidine-1-sulfonyl]-tetrahydro-pyran-4-carboxylic Acid Hydroxyamide], the Ki on MMP-14 worked out at 1410 nM; on MMP-2, 12.5 nM; on MMP-9, 10 nM; on MMP-1 it was 1990 nM; at MMP-13 it was 1.99 nM.

In the case of `O=C(NO)C1(S(=O)(=O)N2CCC(CCCCOCCCC(F)(F)F)CC2)CCOCC1` [Example A40, 4-{4-[4-(4,4,4-trifluoro-butoxy)-butyl]-piperidine-1-sulfonyl}-tetrahydro-pyran-4-carboxylic Acid Hydroxyamide], the inhibition constant Ki is 3420 nM on MMP-14; 6.99 nM at MMP-2; 46.4 nM at MMP-9; 4260 nM on MMP-1; 0.6 nM at MMP-13.

For the molecule `CCCCCCOCC1CCN(S(=O)(=O)C2(C(=O)NO)CCOCC2)CC1` [Example A41, 4-(4-hexyloxymethyl-piperidine-1-sulfonyl)-tetrahydro-pyran-4-carboxylic Acid Hydroxyamide], the Ki was 7210 nM at MMP-14; 8.38 nM on MMP-2; 1.79 nM at MMP-9; greater than 10000 nM on MMP-1; 7.95 nM on MMP-13.

`O=C(NO)C1(S(=O)(=O)N2CCC(COCCCC(F)(F)F)CC2)CCOCC1` [Example A42, 4-[4-(4,4,4-trifluoro-butoxymethyl)-piperidine-1-sulfonyl]-tetrahydro-pyran-4-carboxylic Acid Hydroxyamide]: the Ki was greater than 10000 nM on MMP-14; 22 nM on MMP-2; 28.6 nM on MMP-9; greater than 10000 nM on MMP-1; 33.3 nM at MMP-13.

Take `O=C(NO)C1(S(=O)(=O)N2CCC(CCCCCC(F)(F)F)CC2)CCOCC1` [Example A43, 4-[4-(6,6,6-Trifluoro-hexyl)-piperidine-1-sulfonyl]-tetrahydro-pyran-4-carboxylic Acid Hydroxyamide]: the Ki at MMP-14 came out at 757 nM; at MMP-2, 0.33 nM; at MMP-9, 0.19 nM; at MMP-1, 3100 nM; at MMP-13 it was 0.58 nM.

As to `CCCCOCCC1CCN(S(=O)(=O)C2(C(=O)NO)CCOCC2)CC1` [Example A44, 4-[4-(2-butoxy-ethyl)-piperidine-1-sulfonyl]-tetrahydro-pyran-4-carboxylic Acid Hydroxyamide], the Ki on MMP-14 was greater than 10000 nM; at MMP-2, 27.3 nM; at MMP-9, 12.5 nM; at MMP-1, greater than 10000 nM; on MMP-13, 38.2 nM.
